From the supplement of paper PMC10307832

Assays:
Assay in all cases: relative viability (nuclei count vs DMSO), 5 days (fraction); higher = more cells survive
[1] = compound: O=C(Nc1cc(C(F)(F)F)cc(C(F)(F)F)c1)c1cc(Cl)ccc1O [IMD-0354] + CCNC(=O)c1noc(-c2cc(C(C)C)c(O)cc2O)c1-c1ccc(CN2CCOCC2)cc1 [Luminespib] (partner 0.01 µM)
Procedure, shortened: (§1)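 Lung cancer cell lines in 1536-well plates got either a single drug or a fixed anchor-drug dose together with five library-drug doses (not always all listed) in √10 steps, by pin tool, on the day after seeding. Nuclei were counted after 5 days, and relative viability is the treated-to-vehicle ratio of nuclei counts. Values are medians of duplicate plates.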

[2] = compound: O=C(Nc1cc(C(F)(F)F)cc(C(F)(F)F)c1)c1cc(Cl)ccc1O [IMD-0354] + Cc1cc(Nc2cc(N3CCN(C)CC3)nc(Sc3ccc(NC(=O)C4CC4)cc3)n2)n[nH]1 [Tozasertib] (partner 0.1 µM)
Procedure, shortened: as §1

[3] = compound: Cc1cnc(CNC(=O)c2c(=O)c3ccc(N4CCCN(C)CC4)nc3n3c2sc2ccccc23)cn1 [CX-5461] + O=C(CCCCCCC(=O)Nc1ccccc1)NO [Vorinostat] (partner 1 µM)
Procedure, shortened: as §1

[4] = compound: O=C(Nc1cc(C(F)(F)F)cc(C(F)(F)F)c1)c1cc(Cl)ccc1O [IMD-0354] + O=C(c1cc(Cc2n[nH]c(=O)c3ccccc23)ccc1F)N1CCN(C(=O)C2CC2)CC1 [Olaparib] (partner 8 µM)
Procedure, shortened: as §1

Row | Cell Line | relative viability ([1]; first compound 0.04 µM) | relative viability ([1]; first compound 0.1265 µM) | relative viability ([1]; first compound 0.4 µM) | relative viability ([1]; first compound 1.265 µM) | relative viability ([1]; first compound 4 µM) | relative viability ([2]; first compound 0.04 µM) | relative viability ([2]; first compound 0.1265 µM) | relative viability ([2]; first compound 0.4 µM) | relative viability ([2]; first compound 1.265 µM) | relative viability ([2]; first compound 4 µM) | relative viability ([3]; first compound 0.01 µM) | relative viability ([3]; first compound 0.03162 µM) | relative viability ([3]; first compound 0.1 µM) | relative viability ([3]; first compound 0.3162 µM) | relative viability ([3]; first compound 1 µM) | relative viability ([4]; first compound 0.04 µM) | relative viability ([4]; first compound 0.1265 µM) | relative viability ([4]; first compound 0.4 µM) | relative viability ([4]; first compound 1.265 µM) | relative viability ([4]; first compound 4 µM)
1 | NCI-H1650 | 0.215 | 0.208 | 0.171 | 0.196 | 0.176 | 0.47 | 0.362 | 0.253 | 0.259 | 0.19 | 0.619 | 0.466 | 0.33 | 0.61 | 0.261 | 0.827 | 0.82 | 0.463 | 0.325 | 0.145
2 | BEN | 0.159 | 0.533 | 0.256 | 0.161 | 0.139 | 0.53 | 0.51 | 0.329 | 0.468 | 0.452 | 0.596 | 0.588 | 0.514 | 0.536 | 0.608 | 1.07 | 0.975 | 0.782 | 0.437 | 0.394
3 | EMC-BAC-2 | 1.28 | 1.13 | 0.537 | 0.651 | 0.284 | 0.276 | 0.301 | 0.24 | 0.296 | 0.224 | 0.435 | 0.138 | 0.269 | 0.203 | 0.201 | 0.456 | 0.511 | 0.327 | 0.226 | 0.26
4 | LU99A | 0.214 | 0.264 | 0.221 | 0.196 | 0.201 | 0.326 | 0.254 | 0.267 | 0.244 | 0.218 | 0.529 | 0.544 | 0.377 | 0.323 | 0.215 | 0.196 | 0.269 | 0.257 | 0.176 | 0.179
5 | ABC-1 | 0.381 | 0.82 | 0.32 | 0.237 | 0.307 | 0.169 | 0.181 | 0.174 | 0.118 | 0.161 | 1.2 | – | 1.02 | 0.442 | 0.394 | 1.13 | 0.823 | 0.404 | – | 0.427
6 | NCI-H358 | 0.292 | 0.286 | 0.305 | 0.322 | 0.167 | 0.11 | 0.1 | 0.0993 | 0.0845 | 0.0798 | 0.745 | 0.78 | 0.701 | 0.27 | 0.402 | 0.569 | 0.543 | 0.335 | 0.14 | 0.198
7 | NCI-H1299 | – | – | – | – | – | – | – | – | – | – | – | – | – | – | – | 0.767 | 0.969 | 0.505 | 0.193 | 0.16
8 | EBC-1 | – | – | – | – | – | – | – | – | – | – | – | – | – | – | – | 0.616 | 0.661 | 0.503 | 0.183 | 0.171
9 | NCI-H2347 | 0.523 | 0.331 | 0.356 | 0.395 | 0.267 | 0.767 | 0.513 | 0.563 | 0.505 | 0.233 | 0.457 | 0.608 | 0.512 | 0.552 | 0.501 | 0.606 | 0.64 | 0.49 | 0.377 | 0.265
10 | NCI-H1993 | 0.852 | 0.701 | 0.623 | 0.483 | 0.619 | 0.626 | 0.623 | 0.487 | 0.452 | 0.479 | 1.11 | 0.988 | 0.889 | 0.403 | 0.638 | 0.917 | 0.982 | 0.819 | 0.651 | 0.541
11 | NCI-H322M | 0.94 | 0.895 | 0.618 | 0.317 | 0.355 | 0.469 | 0.471 | 0.387 | 0.289 | 0.359 | 0.894 | 0.802 | 0.9 | 0.569 | 0.743 | 0.789 | 0.773 | 0.6 | 0.407 | 0.517
12 | NCI-H838 | 0.571 | 0.246 | 0.27 | 0.217 | 0.244 | 0.299 | 0.286 | 0.2 | 0.191 | 0.172 | 0.669 | 0.789 | 0.76 | 0.548 | 0.617 | 0.778 | 0.73 | 0.426 | 0.253 | 0.302
13 | HARA | 0.863 | 0.689 | 0.37 | 0.16 | 0.125 | 0.102 | 0.132 | 0.105 | 0.0599 | 0.0875 | 0.516 | 0.568 | 0.485 | – | 0.476 | 0.455 | 0.697 | 0.935 | 0.167 | 0.311
14 | NCI-H2087 | 0.147 | 0.183 | 0.173 | 0.12 | 0.127 | 0.273 | 0.228 | 0.167 | 0.167 | 0.126 | 0.625 | 0.709 | 0.754 | 0.696 | 0.527 | 0.517 | 0.457 | 0.207 | 0.0984 | 0.122
15 | NCI-H1792 | 0.465 | 0.411 | 0.35 | 0.302 | 0.258 | – | – | – | – | – | – | – | – | – | – | 0.393 | 0.389 | 0.236 | 0.21 | 0.172
16 | A549 | – | – | – | – | – | – | – | – | – | – | – | – | – | – | – | 0.365 | 0.555 | 0.108 | 0.0898 | 0.0605
17 | NCI-H1563 | 0.232 | 0.57 | 0.5 | 0.492 | 0.206 | – | – | – | – | – | – | – | – | – | – | – | – | – | – | –
18 | HCC-78 | – | – | – | – | – | 0.467 | 0.598 | 0.3 | 0.368 | 0.231 | 0.405 | 0.477 | 0.459 | 0.402 | 0.42 | 0.814 | 0.744 | 0.649 | 1.04 | 0.291
19 | IA-LM | – | – | – | – | – | – | – | – | – | – | 1 | 0.925 | 1.11 | 0.828 | 1.01 | 0.829 | 0.729 | 0.521 | 0.161 | 0.133
20 | NCI-H1703 | – | – | – | – | – | – | – | – | – | – | – | – | – | – | – | 0.405 | 0.468 | 0.358 | 0.108 | 0.0868
21 | NCI-H1648 | – | – | – | – | – | – | 0.454 | 0.498 | 0.424 | 0.269 | 0.526 | 0.355 | 0.49 | 0.495 | 0.483 | 0.528 | 0.484 | 0.565 | 0.677 | 0.225
